Test results reported in patent US7378104B2, “Delivering substances to invertebrate organisms” (priority 2000, dated 2008).
Where “and” joins values, the source holds several entries; their conditions need not be identical. Equal entries are not always repeated. Where two headings read alike, the source gives them in different places. Marks after values point to notes of the source that are not given here.

What was measured:
Zebra mussels [1] = assay: Experiment 1: toxicity of different masses of KCl to Zebra mussels over two days; assay type: in vivo, Dreissena polymorpha
Description: The toxicity of KCl alone to Zebra mussels is illustrated in Table 1 below, which gives the results of the following experiment:
1) A series of pots where filled with 20 ml of distilled water plus a specified mass of KCl crystals, ground to less than 53 microns. The masses of KCl were chosen to represent the total amount of KCl that would be ingested by a mussel filtering 1 litre of water per day.
2) One mussel was placed in each pot (it was assumed that the mussel would continuously re-filter the limited amount of solution in the pot and thus ingest the required amount of KCl.

Zebra mussels [2] = assay type: in vivo, Dreissena polymorpha; conditions: Mass of toxin 100 mg
Text: The toxicity of an alternative toxin was also investigated and compared with that of KCl.

Zebra mussels [3] = assay: Experiment 8: Batch 7 particles versus KCl in beakers; assay type: in vivo, Dreissena polymorpha; conditions: for No. of live mussels in each pot: 1.15 g KCl
Description: A batch of particles (“Batch 7”) was manufactured by a fluidised bed coating method. 98 μm KCl particles were passed through a 350 μm sieve with 1% silica to help fluidisation. 800 g of solids were sprayed with palmitic acid (MP 61° C.) for 20 minutes at approximately 12 ml min^−1. 400 g of the resulting solids were then further coated with palmitic acid to finally produce particles containing between 20 and 25% wt of KCl.
40 1-litre beakers were filled with 500 ml of tap water and aerated overnight in a temperature controlled room at 25° C. Ten large Zebra mussels were placed into each beaker, attempting to keep a similar size range in all. Five different treatments were applied (such that each had eight replicates); • 1. 5 g of (Batch 7) was added. • 2. 0.5 g of (Batch 7) was added. • 3. 0.05 g of (Batch 7) was added. • 4. 5 g of Palmitic acid alone was added. • 5. 1.15 g of KCl (the same amount by mass as in 5 g of Batch 7) was added.
Each treatment substance was thoroughly stirred into each beaker and aeration continued for the duration of the experiment. At reasonably regular intervals, the number of dead mussels (as indicated by gape) were counted in each pot, before being removed and measured. This was continued until most were dead, or 72 hours had elapsed.

Zebra Mussel = conditions: cited from earlier work
Rainbow Trout = Rainbow Trout 0.8-1.2 g; cited from earlier work
Channel Catfish = Channel Catfish 0.8-1.2 g; cited from earlier work
Threehorn Wartyback = test system: Threehorn Wartyback; design: unit not given here; conditions: Threehorn Wartyback 30-50 mm; cited from earlier work

With `[Cl-].[K+]` [KCl, potassium chloride] the state of mussel (Zebra mussels [1]; 0.1 mg KCl, 17/03/99 16:30) was “Alive”, the state of mussel (Zebra mussels [1]; 0.1 mg KCl, 18/03/99 11:30) was “Alive” and the state of mussel (Zebra mussels [1]; 0.1 mg KCl, 18/03/99 13:30) was “Alive”. For the same compound, the state of mussel (Zebra mussels [1]; 0.1 mg KCl, 19/03/99 16:00) was “Alive”, the state of mussel (Zebra mussels [1]; 0.5 mg KCl, 17/03/99 16:30) was “Alive” and the state of mussel (Zebra mussels [1]; 0.5 mg KCl, 18/03/99 11:30) was “Alive”. For the same compound, the state of mussel (Zebra mussels [1]; 0.5 mg KCl, 18/03/99 13:30) was “Closed”, the state of mussel (Zebra mussels [1]; 0.5 mg KCl, 19/03/99 16:00) was “Alive” and the state of mussel (Zebra mussels [1]; 1 mg KCl, 17/03/99 16:30) was “Alive”. The state of mussel (Zebra mussels [1]; 1 mg KCl, 18/03/99 11:30) was “Alive”, the state of mussel (Zebra mussels [1]; 1 mg KCl, 18/03/99 13:30) was “Alive” and the state of mussel (Zebra mussels [1]; 1 mg KCl, 19/03/99 16:00) was “Alive”. For the same compound, the state of mussel (Zebra mussels [1]; 5 mg KCl, 17/03/99 16:30) was “Alive”, the state of mussel (Zebra mussels [1]; 5 mg KCl, 18/03/99 11:30) was “Alive” and the state of mussel (Zebra mussels [1]; 5 mg KCl, 18/03/99 13:30) was “Alive”. For the same compound, the state of mussel (Zebra mussels [1]; 5 mg KCl, 19/03/99 16:00) was “Alive”, the state of mussel (Zebra mussels [1]; 10 mg KCl, 17/03/99 16:30) was “Alive” and the state of mussel (Zebra mussels [1]; 10 mg KCl, 18/03/99 11:30) was “Alive”. For the same compound, the state of mussel (Zebra mussels [1]; 10 mg KCl, 18/03/99 13:30) was “Closed”, the state of mussel (Zebra mussels [1]; 10 mg KCl, 19/03/99 16:00) was “Dead” and the state of mussel (Zebra mussels [1]; 25 mg KCl, 17/03/99 16:30) was “Alive”. The state of mussel (Zebra mussels [1]; 25 mg KCl, 18/03/99 11:30) was “Dead”, the state of mussel (Zebra mussels [1]; 25 mg KCl, 18/03/99 13:30) was “Dead” and the state of mussel (Zebra mussels [1]; 25 mg KCl, 19/03/99 16:00) was “Dead”. The state of mussel (Zebra mussels [1]; 50 mg KCl, 17/03/99 16:30) was “Alive”, the state of mussel (Zebra mussels [1]; 50 mg KCl, 18/03/99 11:30) was “Dead” and the state of mussel (Zebra mussels [1]; 50 mg KCl, 18/03/99 13:30) was “Dead”. The state of mussel (Zebra mussels [1]; 50 mg KCl, 19/03/99 16:00) was “Dead”, the “effectiveness of KCl alone over the test period” value (Zebra mussels [1]; lower concentrations) was “not effective” and the “Time for mortality of all mussels” value (Zebra mussels [2]) was 8 h. For the same compound, the mortality (Zebra mussels [2]; at 8 hours) was 60%, the “No. of live mussels in each pot” value (Zebra mussels [3]; 0.5 hrs) was 10 and the “No. of live mussels in each pot” value (Zebra mussels [3]; 1 hrs) was 10 and 9. The “No. of live mussels in each pot” value (Zebra mussels [3]; 1.5 hrs) was 10 and 9, the “No. of live mussels in each pot” value (Zebra mussels [3]; 2 hrs) was 10 and 9 and 7 and the “No. of live mussels in each pot” value (Zebra mussels [3]; 3 hrs) was 9 and 8 and 7 and 10. For the same compound, the “No. of live mussels in each pot” value (Zebra mussels [3]; 3.5 hrs) was 9 and 8 and 7 and 6, the “No. of live mussels in each pot” value (Zebra mussels [3]; 4.5 hrs) was 8 and 7 and 5 and 6 and 9 and the “No. of live mussels in each pot” value (Zebra mussels [3]; 5 hrs) was 7 and 6 and 4 and 5 and 8. The “No. of live mussels in each pot” value (Zebra mussels [3]; 6 hrs) was 6 and 4 and 5 and 7, the “No. of live mussels in each pot” value (Zebra mussels [3]; 7.5 hrs) was 6 and 4 and 3 and 5 and the mortality (Zebra mussels [3]; 1.15 g of KCl, especially over the first 8 hours) was “rapid mortality”. For the same compound, the 48-hour LC50 (Zebra Mussel; Zebra Mussel 5-8 mm) was 147 µg/mL, the 48-hour LC50 (Zebra Mussel; Zebra Mussel 20-25 mm) was 150 µg/mL and the 48-hour LC50 (Rainbow Trout) was 1610 µg/mL. The 48-hour LC50 (Channel Catfish) was 720 µg/mL and the “48-hour LC50” value (Threehorn Wartyback) was >2000^a.
